Assay results reported in PMC5962351 (Nature, 2018).

Experiments:
Assay type in all cases: binding
[1] = molecular target: GluN1 (GluN1/GluN2B NMDA receptor) (Xenopus laevis, UniProt A0A1L8F5J9+A7XY94)
[2] = molecular target: GluN1 (GluN1/GluN2B ∆ATD NMDA receptor) (Xenopus laevis, UniProt A0A1L8F5J9+A7XY94, A0A1L8F5J9:DEL23-393/A0A1L8F5J9:G610R); experiment: X-ray crystal structure
[3] = molecular target: GluN1 (GluN1/GluN2B NMDA receptor) (Xenopus laevis, UniProt A0A1L8F5J9+A7XY94, A0A1L8F5J9:G610R); experiment: competition with 3H-MK-801, scintillation proximity assay

Compound	Kd [1]	Kd [2]	Ki [3]
C[C@]12N[C@H](Cc3ccccc31)c1ccccc12 [MK-801]	0.111 ± 0.0085 µM	1.6 ± 0.3 µM	
CC12CC3CC(C)(C1)CC(N)(C3)C2 [memantine]			~147 µM
